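48-hour exposure; five concentrations; linearly interpolated endpoints. GI50 marks 50% less growth. TGI denotes the concentration required for complete inhibition of growth.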
Experiments:
Experiment in all cases: inhibition of tumour cell growth, NCI panel, 48 h; in the data active = GI50 below about 0.43 µM; inactive = the rest
NCI-H522 lung = tested on: NCI-H522 lung
A549 NSCLC = tested on: A549 NSCLC
SK-MEL-2 melanoma = tested on: SK-MEL-2 melanoma
786-0 renal = tested on: 786-0 renal
SF-295 CNS = tested on: SF-295 CNS
HOP-92 NSCLC = tested on: HOP-92 NSCLC
SR leukemia = tested on: SR leukemia
DU-145 prostate = tested on: DU-145 prostate
HCT-15 colon = tested on: HCT-15 colon
ACHN renal = tested on: ACHN renal
A498 renal = tested on: A498 renal
OVCAR-3 ovarian = tested on: OVCAR-3 ovarian
MDA-MB-435 = tested on: MDA-MB-435
OVCAR-8 ovarian = tested on: OVCAR-8 ovarian
HT29 colon = tested on: HT29 colon
TK-10 renal = tested on: TK-10 renal
CAKI-1 renal = tested on: CAKI-1 renal
HCC-2998 colon = tested on: HCC-2998 colon
LOX IMVI melanoma = tested on: LOX IMVI melanoma
KM12 colon = tested on: KM12 colon
OVCAR-4 ovarian = tested on: OVCAR-4 ovarian
RPMI-8226 leukemia = tested on: RPMI-8226 leukemia
SN12C renal = tested on: SN12C renal
HS 578T breast = tested on: HS 578T breast
NCI/ADR-RES ovarian = tested on: NCI/ADR-RES ovarian
T-47D breast = tested on: T-47D breast
MCF7 breast = tested on: MCF7 breast
UACC-62 melanoma = tested on: UACC-62 melanoma
COLO 205 colon = tested on: COLO 205 colon
SF-539 CNS = tested on: SF-539 CNS
UO-31 renal = tested on: UO-31 renal
OVCAR-5 ovarian = tested on: OVCAR-5 ovarian
SK-MEL-5 melanoma = tested on: SK-MEL-5 melanoma
PC-3 prostate = tested on: PC-3 prostate
EKVX NSCLC = tested on: EKVX NSCLC
UACC-257 melanoma = tested on: UACC-257 melanoma
SK-MEL-28 melanoma = tested on: SK-MEL-28 melanoma
SNB-19 CNS = tested on: SNB-19 CNS
HCT-116 colon = tested on: HCT-116 colon
SNB-75 CNS = tested on: SNB-75 CNS
NCI-H460 lung = tested on: NCI-H460 lung
CCRF-CEM leukemia = tested on: CCRF-CEM leukemia
SF-268 CNS = tested on: SF-268 CNS
IGROV1 ovarian = tested on: IGROV1 ovarian
NCI-H226 lung = tested on: NCI-H226 lung
SW-620 colon = tested on: SW-620 colon
MDA-MB-231 breast = tested on: MDA-MB-231 breast
BT-549 breast = tested on: BT-549 breast
HL-60(TB) leukemia = tested on: HL-60(TB) leukemia
RXF 393 renal = tested on: RXF 393 renal
U251 CNS = tested on: U251 CNS
HOP-62 NSCLC = tested on: HOP-62 NSCLC
SK-OV-3 ovarian = tested on: SK-OV-3 ovarian
K-562 leukemia = tested on: K-562 leukemia
MOLT-4 leukemia = tested on: MOLT-4 leukemia

CN1C(=O)N(c2ccccc2)C2N=C(N/N=C/c3ccccc3)SC21 (stereo not given)
19.9 µM: TGI (NCI-H460 lung)
3.16 µM: TGI (RXF 393 renal)
1.58 µM: TGI (NCI-H522 lung)
0.508 µM: TGI (MDA-MB-435)
53.2 µM: TGI (HCC-2998 colon)
7.7 µM: TGI (SNB-75 CNS)
inactive: GI50 (A549 NSCLC) 2.48 µM | GI50 (SK-MEL-2 melanoma) 1.1 µM | GI50 (786-0 renal) 4.21 µM | GI50 (SF-295 CNS) 0.622 µM | GI50 (HOP-92 NSCLC) 0.648 µM | GI50 (DU-145 prostate) 3.61 µM | GI50 (HCT-15 colon) 0.553 µM | GI50 (ACHN renal) 5.19 µM | GI50 (A498 renal) > 100 µM | GI50 (OVCAR-3 ovarian) 0.556 µM | GI50 (OVCAR-8 ovarian) 3.56 µM | GI50 (HT29 colon) 0.935 µM | GI50 (TK-10 renal) > 100 µM | GI50 (CAKI-1 renal) 0.685 µM | GI50 (HCC-2998 colon) 2.25 µM | GI50 (LOX IMVI melanoma) 0.931 µM | GI50 (KM12 colon) 0.819 µM | GI50 (OVCAR-4 ovarian) 14.5 µM | GI50 (RPMI-8226 leukemia) 3.24 µM | GI50 (SN12C renal) 4.46 µM | GI50 (HS 578T breast) 1.7 µM | GI50 (NCI/ADR-RES ovarian) 1.05 µM | GI50 (T-47D breast) 2.93 µM | GI50 (MCF7 breast) 0.456 µM | GI50 (UACC-62 melanoma) 0.577 µM | GI50 (COLO 205 colon) 1.52 µM | GI50 (SF-539 CNS) 1.34 µM | GI50 (UO-31 renal) 3.18 µM | GI50 (OVCAR-5 ovarian) 4.22 µM | GI50 (SK-MEL-5 melanoma) 6.05 µM | GI50 (PC-3 prostate) 1.59 µM | GI50 (EKVX NSCLC) 3.73 µM | GI50 (UACC-257 melanoma) 28.7 µM | GI50 (SK-MEL-28 melanoma) 16.8 µM | GI50 (SNB-19 CNS) 3.77 µM | GI50 (HCT-116 colon) 0.71 µM | GI50 (NCI-H460 lung) 1.04 µM | GI50 (CCRF-CEM leukemia) 1.93 µM | GI50 (SF-268 CNS) 5.49 µM | GI50 (IGROV1 ovarian) 3.86 µM | GI50 (NCI-H226 lung) 2.28 µM | GI50 (SW-620 colon) 0.659 µM | GI50 (MDA-MB-231 breast) 3.62 µM | GI50 (BT-549 breast) 0.885 µM | GI50 (HL-60(TB) leukemia) 0.452 µM | GI50 (RXF 393 renal) 0.873 µM | GI50 (U251 CNS) 1.83 µM | GI50 (HOP-62 NSCLC) 2.5 µM | GI50 (SK-OV-3 ovarian) 2.82 µM | GI50 (K-562 leukemia) 0.447 µM | GI50 (MOLT-4 leukemia) 2.38 µM
67.5 µM: TGI (SK-MEL-5 melanoma)
> 100 µM: TGI (A549 NSCLC) | TGI (SK-MEL-2 melanoma) | TGI (786-0 renal) | TGI (SF-295 CNS) | TGI (HOP-92 NSCLC) | TGI (SR leukemia) | TGI (DU-145 prostate) | TGI (HCT-15 colon) | TGI (ACHN renal) | TGI (A498 renal) | TGI (OVCAR-3 ovarian) | TGI (OVCAR-8 ovarian) | TGI (TK-10 renal) | TGI (CAKI-1 renal) | TGI (LOX IMVI melanoma) | TGI (KM12 colon) | TGI (OVCAR-4 ovarian) | TGI (RPMI-8226 leukemia) | TGI (SN12C renal) | TGI (HS 578T breast) | TGI (NCI/ADR-RES ovarian) | TGI (T-47D breast) | TGI (MCF7 breast) | TGI (UACC-62 melanoma) | TGI (UO-31 renal) | TGI (OVCAR-5 ovarian) | TGI (PC-3 prostate) | TGI (EKVX NSCLC) | TGI (UACC-257 melanoma) | TGI (SK-MEL-28 melanoma) | TGI (SNB-19 CNS) | TGI (HCT-116 colon) | TGI (CCRF-CEM leukemia) | TGI (SF-268 CNS) | TGI (IGROV1 ovarian) | TGI (SW-620 colon) | TGI (U251 CNS) | TGI (HOP-62 NSCLC) | TGI (SK-OV-3 ovarian) | TGI (K-562 leukemia) | TGI (MOLT-4 leukemia)
5.16 µM: TGI (COLO 205 colon)
active: GI50 (NCI-H522 lung) 0.304 µM | GI50 (SR leukemia) 0.38 µM | GI50 (MDA-MB-435) 0.203 µM | GI50 (SNB-75 CNS) 0.363 µM
66.6 µM: TGI (NCI-H226 lung)
7.91 µM: TGI (SF-539 CNS)
82.6 µM: TGI (MDA-MB-231 breast)
8.04 µM: TGI (HT29 colon)
13.7 µM: TGI (BT-549 breast)
6.58 µM: TGI (HL-60(TB) leukemia)

From PubChem BioAssay (NCI)
